Measurements taken from ChEMBL document CHEMBL1154731, “Theoretical and structural analysis of the active site of the transcriptional regulators LasR and TraR, using molecular docking methodology for identifying potential analogues of acyl homoserine lactones (AHLs) with anti-quorum sensing activity” (Eur J Med Chem, 2010).

Assays:
[1] = target: T1, Transcriptional activator protein TraR (Agrobacterium tumefaciens, UniProt P33905); assay: Inhibition of Agrobacterium tumefaciens TraR
T1 sequence (P33905 whole entry): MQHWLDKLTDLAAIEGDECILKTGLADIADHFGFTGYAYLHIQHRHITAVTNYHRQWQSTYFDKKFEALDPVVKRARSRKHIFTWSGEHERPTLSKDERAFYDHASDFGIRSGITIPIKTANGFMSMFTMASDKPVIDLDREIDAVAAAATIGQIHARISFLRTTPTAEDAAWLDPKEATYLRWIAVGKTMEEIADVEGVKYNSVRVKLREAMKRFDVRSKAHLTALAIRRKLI

[2] = target: T2, Transcriptional activator protein LasR (Pseudomonas aeruginosa (strain ATCC 15692 / PAO1 / 1C / PRS 101 / LMG12228), UniProt P25084); assay: Inhibition of Pseudomonas aeruginosa LasR
T2 sequence (P25084 whole entry): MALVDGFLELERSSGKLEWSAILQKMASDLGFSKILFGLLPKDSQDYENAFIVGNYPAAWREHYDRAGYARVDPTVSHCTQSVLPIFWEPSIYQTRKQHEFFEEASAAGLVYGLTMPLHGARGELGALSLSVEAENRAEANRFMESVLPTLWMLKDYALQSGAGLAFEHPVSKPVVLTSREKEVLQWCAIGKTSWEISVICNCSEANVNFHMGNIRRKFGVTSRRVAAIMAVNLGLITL

Row | IC50 [1] [µM] | IC50 [2] [µM] | Structure (SMILES)
1 | 0.5 | 53.6 | O=C(CC(=O)N[C@H]1CCOC1=O)Cc1ccccc1
2 | 1.1 | 14.8 | O=C(CCCc1c[nH]c2ccccc12)N[C@H]1CCOC1=O
3 | 1 | 33.1 | O=C(CC1C=CCC1)N[C@H]1CCOC1=O (stereo partly drawn)
4 | 0.13 | 51.5 | CCCCCCC(=O)N[C@H]1CCOC1=O
